This note sets out measurements from patent US20260009064A1, “STEROL PRODUCTION IN YEAST” (APIX BIOSCIENCES, priority 2021, published 2026).

For the data set, the system named is managed honeybee colonies. Description: Artificial diets with dried engineered yeast powder fed to managed honeybee colonies (APIDEA hives, three months). Particulars: inferred from platform strain diet versus wild-type yeast diet. In kind it is in vivo. How it is done:
Yeast strains ST4842 (wild-type, containing ergosterol), ST11005 (platform strain engineered to produce tetrahymanol, containing ergosterol and tetrahymanol) and ST12178 (mixed sterol producing strain producing desired phytosterols and tetrahymanol) were cultivated by 5-L fed-batch fermentation as described above. At the end of fermentation, the yeast biomass was recovered from the culture by centrifugation (4000×g, 20 min) and washed with deionized water. The biomass was heat-inactivated and dried (60° C. for a minimum of 24 h). The dried material was ground to a fine powder and stored at −20° C. until further use.
The yeast biomass was then incorporated at 20% w/w into a holidic diet designed to provide additional protein, lipid, sugar, vitamins and minerals. […]
Honeybee colonies were maintained for three months in APIDEA hives (Styrofoam queen mating mini nucleus hives, (Paynes Southdown Bee Farms Ltd, West Sussex. UK) made up of one brood box with five frames and a top feeder with a hole for petty delivery. Hives were maintained within a closed glasshouse environment designed to negate bee escape. Hives were distributed across two rooms of the glasshouse, with varying orientation. Feeders with 30% w/v sugar solution and water were distributed inside the glasshouse and replenished as required. Regular temperature and humidity measurements were recorded on a datalogger. […]

Take `CC1(C)CCC[C@]2(C)[C@H]3CC[C@@H]4[C@@]5(C)CC[C@H](O)C(C)(C)[C@@H]5CC[C@@]4(C)[C@]3(C)CC[C@@H]12` [tetrahymanol]: the “adverse effects in honeybee colonies” value was “does not have adverse effects”.
